Measured values from paper PMC5540273, “Progress towards a public chemogenomic set for protein kinases and a call for contributions” (PLoS ONE, 2017).

Experiments:
Test in all cases: KINOMEscan competition binding
[1] = target: T1, CHEK1 (Homo sapiens, UniProt O14757); settings: read-out: %Inh CHEK1
T1 sequence (O14757 1-476): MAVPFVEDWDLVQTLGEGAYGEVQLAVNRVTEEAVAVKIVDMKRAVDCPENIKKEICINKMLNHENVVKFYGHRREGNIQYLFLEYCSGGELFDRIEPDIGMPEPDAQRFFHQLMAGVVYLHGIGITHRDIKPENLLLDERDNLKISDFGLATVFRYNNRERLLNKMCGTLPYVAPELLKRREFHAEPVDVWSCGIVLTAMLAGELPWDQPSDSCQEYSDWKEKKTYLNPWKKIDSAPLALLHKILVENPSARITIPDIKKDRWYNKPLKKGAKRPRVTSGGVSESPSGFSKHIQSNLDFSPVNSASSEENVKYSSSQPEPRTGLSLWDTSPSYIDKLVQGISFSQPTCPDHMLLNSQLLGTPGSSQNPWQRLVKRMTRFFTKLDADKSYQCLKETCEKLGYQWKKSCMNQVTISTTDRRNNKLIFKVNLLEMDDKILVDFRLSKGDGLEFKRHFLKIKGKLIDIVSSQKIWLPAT

[2] = target: T2, DLK (Homo sapiens, UniProt Q12852); settings: read-out: %Inh DLK
T2 sequence (Q12852 1-859): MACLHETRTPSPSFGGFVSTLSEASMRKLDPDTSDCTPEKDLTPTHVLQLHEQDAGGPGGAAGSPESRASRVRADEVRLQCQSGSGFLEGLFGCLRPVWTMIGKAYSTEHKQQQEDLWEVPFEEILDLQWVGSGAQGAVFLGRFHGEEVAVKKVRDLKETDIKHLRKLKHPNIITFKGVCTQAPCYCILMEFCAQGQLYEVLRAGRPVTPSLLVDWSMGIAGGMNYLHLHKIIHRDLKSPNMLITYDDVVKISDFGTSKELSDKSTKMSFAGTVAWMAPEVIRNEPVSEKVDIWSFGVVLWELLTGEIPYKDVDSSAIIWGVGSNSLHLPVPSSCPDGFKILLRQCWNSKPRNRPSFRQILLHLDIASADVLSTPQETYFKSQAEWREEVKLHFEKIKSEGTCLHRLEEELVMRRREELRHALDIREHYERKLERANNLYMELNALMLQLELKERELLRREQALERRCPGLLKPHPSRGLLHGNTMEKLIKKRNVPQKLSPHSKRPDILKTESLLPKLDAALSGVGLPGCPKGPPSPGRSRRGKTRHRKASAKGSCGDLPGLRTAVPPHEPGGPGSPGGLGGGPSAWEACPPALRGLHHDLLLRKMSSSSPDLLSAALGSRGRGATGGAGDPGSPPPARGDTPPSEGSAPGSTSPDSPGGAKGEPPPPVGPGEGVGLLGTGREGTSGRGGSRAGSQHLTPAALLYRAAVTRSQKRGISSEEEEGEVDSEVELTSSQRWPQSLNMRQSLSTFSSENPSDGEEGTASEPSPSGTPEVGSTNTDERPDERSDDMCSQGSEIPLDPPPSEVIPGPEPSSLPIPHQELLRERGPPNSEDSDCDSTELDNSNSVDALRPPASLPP

[3] = target: FES (Homo sapiens, UniProt P07332); settings: read-out: %Inh FES
[4] = target: EPHA4 (Homo sapiens, UniProt P54764); settings: read-out: %Inh EPHA4
[5] = target: T3, EPHA8 (Homo sapiens, UniProt P29322); settings: read-out: %Inh EPHA8
T3 sequence (P29322 28-1005): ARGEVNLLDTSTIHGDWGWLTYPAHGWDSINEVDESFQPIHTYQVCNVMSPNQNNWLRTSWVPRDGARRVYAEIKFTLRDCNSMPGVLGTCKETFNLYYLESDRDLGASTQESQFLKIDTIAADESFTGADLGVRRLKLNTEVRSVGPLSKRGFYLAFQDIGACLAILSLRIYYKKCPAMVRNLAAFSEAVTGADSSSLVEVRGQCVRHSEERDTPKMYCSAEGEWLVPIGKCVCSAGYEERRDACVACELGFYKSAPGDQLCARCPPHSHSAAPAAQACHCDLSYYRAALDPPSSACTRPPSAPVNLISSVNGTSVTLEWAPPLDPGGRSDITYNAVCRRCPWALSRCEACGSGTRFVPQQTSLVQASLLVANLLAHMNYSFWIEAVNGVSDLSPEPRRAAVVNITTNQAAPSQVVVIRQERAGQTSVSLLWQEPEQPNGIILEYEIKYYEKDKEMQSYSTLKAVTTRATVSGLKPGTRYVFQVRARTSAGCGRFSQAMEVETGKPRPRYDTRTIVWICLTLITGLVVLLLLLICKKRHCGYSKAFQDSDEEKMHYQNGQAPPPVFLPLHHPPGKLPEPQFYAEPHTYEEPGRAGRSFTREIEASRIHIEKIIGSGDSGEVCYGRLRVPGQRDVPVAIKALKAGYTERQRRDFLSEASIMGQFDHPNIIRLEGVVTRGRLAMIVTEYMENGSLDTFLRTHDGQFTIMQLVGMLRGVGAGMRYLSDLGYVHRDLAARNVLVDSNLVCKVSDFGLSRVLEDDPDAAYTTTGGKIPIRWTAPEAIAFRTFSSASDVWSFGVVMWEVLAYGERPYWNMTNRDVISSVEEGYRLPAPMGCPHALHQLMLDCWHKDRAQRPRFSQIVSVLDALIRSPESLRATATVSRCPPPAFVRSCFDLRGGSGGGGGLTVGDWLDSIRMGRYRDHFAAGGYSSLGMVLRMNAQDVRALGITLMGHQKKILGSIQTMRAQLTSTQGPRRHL

[6] = target: JNK1 (Homo sapiens, UniProt P45983); settings: read-out: %Inh JNK1
Chain of JNK1 (P45983 whole entry): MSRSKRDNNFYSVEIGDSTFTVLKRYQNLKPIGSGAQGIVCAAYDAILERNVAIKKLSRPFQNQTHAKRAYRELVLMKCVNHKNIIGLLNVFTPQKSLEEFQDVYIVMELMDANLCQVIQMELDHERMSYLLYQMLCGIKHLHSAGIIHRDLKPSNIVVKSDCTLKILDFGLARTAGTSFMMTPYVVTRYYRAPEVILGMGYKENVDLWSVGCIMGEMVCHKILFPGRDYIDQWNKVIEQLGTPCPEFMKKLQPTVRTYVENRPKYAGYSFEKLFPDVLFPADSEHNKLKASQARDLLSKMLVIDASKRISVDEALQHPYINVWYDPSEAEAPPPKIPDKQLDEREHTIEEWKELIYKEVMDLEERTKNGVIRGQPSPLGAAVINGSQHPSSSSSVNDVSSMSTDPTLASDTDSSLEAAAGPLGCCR

Chain of FES (P07332 whole entry): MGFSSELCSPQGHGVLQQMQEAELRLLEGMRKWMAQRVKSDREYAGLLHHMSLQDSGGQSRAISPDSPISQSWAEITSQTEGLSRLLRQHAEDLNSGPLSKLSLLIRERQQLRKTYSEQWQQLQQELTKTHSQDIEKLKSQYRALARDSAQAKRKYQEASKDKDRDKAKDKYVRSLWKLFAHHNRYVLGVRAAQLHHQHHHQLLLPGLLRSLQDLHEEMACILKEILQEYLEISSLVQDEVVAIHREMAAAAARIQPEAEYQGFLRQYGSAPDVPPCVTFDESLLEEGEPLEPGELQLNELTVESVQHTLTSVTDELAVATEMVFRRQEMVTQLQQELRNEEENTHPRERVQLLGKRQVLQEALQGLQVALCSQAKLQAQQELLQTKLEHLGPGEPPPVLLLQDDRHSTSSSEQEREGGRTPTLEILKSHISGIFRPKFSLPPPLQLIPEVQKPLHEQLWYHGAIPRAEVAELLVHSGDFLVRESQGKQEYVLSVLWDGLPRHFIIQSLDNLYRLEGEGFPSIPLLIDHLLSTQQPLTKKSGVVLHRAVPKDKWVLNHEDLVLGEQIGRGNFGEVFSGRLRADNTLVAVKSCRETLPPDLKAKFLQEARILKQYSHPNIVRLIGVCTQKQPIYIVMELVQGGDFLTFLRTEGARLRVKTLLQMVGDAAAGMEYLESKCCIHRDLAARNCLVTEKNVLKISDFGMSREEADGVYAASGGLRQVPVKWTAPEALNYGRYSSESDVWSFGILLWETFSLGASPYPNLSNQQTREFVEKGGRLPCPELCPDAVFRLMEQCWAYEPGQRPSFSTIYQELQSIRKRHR
Chain of EPHA4 (P54764 20-986): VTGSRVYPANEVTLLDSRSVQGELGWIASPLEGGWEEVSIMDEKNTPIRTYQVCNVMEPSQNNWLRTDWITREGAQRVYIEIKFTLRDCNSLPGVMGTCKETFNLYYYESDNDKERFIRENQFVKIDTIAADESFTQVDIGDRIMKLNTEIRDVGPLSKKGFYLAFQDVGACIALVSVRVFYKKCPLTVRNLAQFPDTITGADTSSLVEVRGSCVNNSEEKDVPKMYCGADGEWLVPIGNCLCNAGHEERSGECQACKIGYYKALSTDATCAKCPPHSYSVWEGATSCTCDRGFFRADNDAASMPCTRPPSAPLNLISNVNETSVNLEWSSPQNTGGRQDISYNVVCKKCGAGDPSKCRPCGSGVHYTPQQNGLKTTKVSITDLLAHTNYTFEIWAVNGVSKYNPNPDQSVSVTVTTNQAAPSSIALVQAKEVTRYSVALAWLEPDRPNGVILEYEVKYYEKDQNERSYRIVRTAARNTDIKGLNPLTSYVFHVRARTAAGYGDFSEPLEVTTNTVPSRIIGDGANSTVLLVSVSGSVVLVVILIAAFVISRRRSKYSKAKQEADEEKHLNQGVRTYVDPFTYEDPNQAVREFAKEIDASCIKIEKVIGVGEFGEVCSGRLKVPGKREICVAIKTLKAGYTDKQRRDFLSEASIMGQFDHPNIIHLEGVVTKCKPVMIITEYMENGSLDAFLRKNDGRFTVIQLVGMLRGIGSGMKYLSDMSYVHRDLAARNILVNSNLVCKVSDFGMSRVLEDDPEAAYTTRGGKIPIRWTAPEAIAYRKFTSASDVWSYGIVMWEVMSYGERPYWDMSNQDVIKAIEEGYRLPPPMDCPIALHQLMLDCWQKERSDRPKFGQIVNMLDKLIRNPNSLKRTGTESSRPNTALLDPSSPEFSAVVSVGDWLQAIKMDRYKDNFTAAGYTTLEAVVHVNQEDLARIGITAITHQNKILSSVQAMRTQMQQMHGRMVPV

Row | SMILES | inhibition at 1 µM [1] [%] | inhibition at 1 µM [2] [%] | inhibition at 1 µM [3] [%] | inhibition at 1 µM [4] [%] | inhibition at 1 µM [5] [%] | inhibition at 1 µM [6] [%]
1 | Cn1cc(-c2cnc(N)c3c(-c4ccc5c(c4)CCN5C(=O)Cc4ccccc4)csc23)cn1 [UNC10225012A] | 9 | 0 | 14 | 11 | 8 | 13
2 | CS(=O)(=O)Cc1ccc(Nc2nccc(-c3c(-c4cccc(NC(=O)C5CCCCC5)c4)nn4ncccc34)n2)cc1 [UNC10225159A] | 12 | 41 | 0 | 14 | 15 | 43
3 | Cc1ccc(NC(=O)Nc2cccc(C(F)(F)F)c2)cc1 [UNC10225187A] | 5 | 0 | 0 | 6 | 3 | 58
4 | COc1cccc(OC)c1C(=O)Nc1cccc(-c2nn3ccccc3c2-c2ccnc(Nc3cccc(F)c3)n2)c1 [UNC10225310A] | 13 | 0 | 20 | 0 | 17 | 44
5 | O=c1cc(N2CCOCC2)nc2n(Cc3cccc(Cl)c3Cl)c(C3CC3)nn12 [UNC10225469A] | 15 | 0 | 15 | 11 | 9 | 19
